Key:
lipoamide = compound: NC(=O)CCCCC1CCSS1 [lipoamide]; assay: thermal stability z-score vs DMSO; higher = more thermally stabilized by treatment; conditions: HeLa, lipoamide concentration 100 µM
Protocol: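 Cellular thermal proteome profiling in HeLa cells. Cells were treated with 100 µM lipoamide for 1 h, with or without 1 mM arsenate for a further 1 h, then heated to ten temperatures (37-66.3 °C), and soluble protein was quantified by TMT mass spectrometry relative to 0.1% DMSO controls. The thermal stability score (sum of log2 fold changes minus the abundance score) was transformed to a z-score; mean of n = 3 experiments.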

potassium arsenate = compound: O=[As]([O-])(O)O.[K+] [potassium arsenate]; assay: as above; conditions: HeLa; arsenate concentration 1 mM
Protocol: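 Cellular thermal proteome profiling in HeLa cells treated with 1 mM arsenate for 1 h (DMSO pretreatment), heated to ten temperatures (37-66.3 °C). Soluble protein was quantified by TMT mass spectrometry relative to DMSO controls; the thermal stability score was transformed to a z-score; mean of n = 3 experiments.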

[1] = arsenate co-treatment: 1 mM arsenate 1 h
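Further: each temperature applied for 3 min, abundance score taken as mean log2 fold change at the two lowest temperatures, z-score obtained by mean subtraction and division by SD.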

UniProt Q9Y5U2, sequence (Q9Y5U2 whole entry): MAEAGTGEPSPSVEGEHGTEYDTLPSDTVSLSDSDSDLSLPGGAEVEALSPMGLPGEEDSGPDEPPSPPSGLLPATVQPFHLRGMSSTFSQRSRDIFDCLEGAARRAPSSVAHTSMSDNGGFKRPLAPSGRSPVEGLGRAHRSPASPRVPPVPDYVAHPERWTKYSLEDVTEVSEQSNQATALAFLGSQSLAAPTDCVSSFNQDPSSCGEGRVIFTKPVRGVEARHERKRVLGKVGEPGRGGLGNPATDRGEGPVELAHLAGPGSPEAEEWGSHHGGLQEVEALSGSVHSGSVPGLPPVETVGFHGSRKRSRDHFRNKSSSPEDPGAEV
UniProt Q92547, sequence (Q92547 whole entry): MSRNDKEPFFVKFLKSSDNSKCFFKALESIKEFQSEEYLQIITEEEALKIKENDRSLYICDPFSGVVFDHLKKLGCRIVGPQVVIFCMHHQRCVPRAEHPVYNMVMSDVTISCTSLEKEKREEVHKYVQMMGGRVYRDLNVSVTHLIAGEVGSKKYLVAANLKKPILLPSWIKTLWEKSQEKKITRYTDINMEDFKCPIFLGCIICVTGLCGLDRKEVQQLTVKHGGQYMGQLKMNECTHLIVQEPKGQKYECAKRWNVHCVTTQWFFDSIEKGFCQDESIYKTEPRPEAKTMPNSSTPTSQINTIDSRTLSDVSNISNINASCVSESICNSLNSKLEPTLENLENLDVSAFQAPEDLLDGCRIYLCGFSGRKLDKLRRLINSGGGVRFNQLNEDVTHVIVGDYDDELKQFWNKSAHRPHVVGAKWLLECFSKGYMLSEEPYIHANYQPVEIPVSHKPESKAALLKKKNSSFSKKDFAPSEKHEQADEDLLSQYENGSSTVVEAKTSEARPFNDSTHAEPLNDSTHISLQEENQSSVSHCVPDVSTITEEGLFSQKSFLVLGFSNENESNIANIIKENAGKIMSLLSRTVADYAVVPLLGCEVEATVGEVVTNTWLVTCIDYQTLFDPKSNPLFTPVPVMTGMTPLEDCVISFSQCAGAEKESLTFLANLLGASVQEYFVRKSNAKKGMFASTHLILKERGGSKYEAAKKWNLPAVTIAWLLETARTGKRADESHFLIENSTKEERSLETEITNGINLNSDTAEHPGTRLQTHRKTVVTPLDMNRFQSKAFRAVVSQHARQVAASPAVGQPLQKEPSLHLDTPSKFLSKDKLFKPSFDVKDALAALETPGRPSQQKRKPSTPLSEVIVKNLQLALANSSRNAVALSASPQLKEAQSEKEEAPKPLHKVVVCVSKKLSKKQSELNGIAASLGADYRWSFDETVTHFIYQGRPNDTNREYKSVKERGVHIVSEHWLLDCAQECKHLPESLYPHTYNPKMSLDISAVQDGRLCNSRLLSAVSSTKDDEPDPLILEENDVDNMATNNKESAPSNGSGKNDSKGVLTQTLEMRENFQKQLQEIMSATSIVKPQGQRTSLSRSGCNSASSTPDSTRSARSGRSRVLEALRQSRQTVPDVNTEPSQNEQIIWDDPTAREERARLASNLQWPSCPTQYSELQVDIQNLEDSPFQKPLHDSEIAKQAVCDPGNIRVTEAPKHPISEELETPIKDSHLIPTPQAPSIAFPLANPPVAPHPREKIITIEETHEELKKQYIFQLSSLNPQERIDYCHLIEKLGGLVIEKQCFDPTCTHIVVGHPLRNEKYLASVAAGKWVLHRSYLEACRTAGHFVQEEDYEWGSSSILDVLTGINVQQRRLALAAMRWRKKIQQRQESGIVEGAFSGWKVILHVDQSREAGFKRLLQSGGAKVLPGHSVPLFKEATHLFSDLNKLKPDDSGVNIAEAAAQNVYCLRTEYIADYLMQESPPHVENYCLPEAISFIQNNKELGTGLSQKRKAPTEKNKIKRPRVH
UniProt P48553, sequence (P48553 whole entry): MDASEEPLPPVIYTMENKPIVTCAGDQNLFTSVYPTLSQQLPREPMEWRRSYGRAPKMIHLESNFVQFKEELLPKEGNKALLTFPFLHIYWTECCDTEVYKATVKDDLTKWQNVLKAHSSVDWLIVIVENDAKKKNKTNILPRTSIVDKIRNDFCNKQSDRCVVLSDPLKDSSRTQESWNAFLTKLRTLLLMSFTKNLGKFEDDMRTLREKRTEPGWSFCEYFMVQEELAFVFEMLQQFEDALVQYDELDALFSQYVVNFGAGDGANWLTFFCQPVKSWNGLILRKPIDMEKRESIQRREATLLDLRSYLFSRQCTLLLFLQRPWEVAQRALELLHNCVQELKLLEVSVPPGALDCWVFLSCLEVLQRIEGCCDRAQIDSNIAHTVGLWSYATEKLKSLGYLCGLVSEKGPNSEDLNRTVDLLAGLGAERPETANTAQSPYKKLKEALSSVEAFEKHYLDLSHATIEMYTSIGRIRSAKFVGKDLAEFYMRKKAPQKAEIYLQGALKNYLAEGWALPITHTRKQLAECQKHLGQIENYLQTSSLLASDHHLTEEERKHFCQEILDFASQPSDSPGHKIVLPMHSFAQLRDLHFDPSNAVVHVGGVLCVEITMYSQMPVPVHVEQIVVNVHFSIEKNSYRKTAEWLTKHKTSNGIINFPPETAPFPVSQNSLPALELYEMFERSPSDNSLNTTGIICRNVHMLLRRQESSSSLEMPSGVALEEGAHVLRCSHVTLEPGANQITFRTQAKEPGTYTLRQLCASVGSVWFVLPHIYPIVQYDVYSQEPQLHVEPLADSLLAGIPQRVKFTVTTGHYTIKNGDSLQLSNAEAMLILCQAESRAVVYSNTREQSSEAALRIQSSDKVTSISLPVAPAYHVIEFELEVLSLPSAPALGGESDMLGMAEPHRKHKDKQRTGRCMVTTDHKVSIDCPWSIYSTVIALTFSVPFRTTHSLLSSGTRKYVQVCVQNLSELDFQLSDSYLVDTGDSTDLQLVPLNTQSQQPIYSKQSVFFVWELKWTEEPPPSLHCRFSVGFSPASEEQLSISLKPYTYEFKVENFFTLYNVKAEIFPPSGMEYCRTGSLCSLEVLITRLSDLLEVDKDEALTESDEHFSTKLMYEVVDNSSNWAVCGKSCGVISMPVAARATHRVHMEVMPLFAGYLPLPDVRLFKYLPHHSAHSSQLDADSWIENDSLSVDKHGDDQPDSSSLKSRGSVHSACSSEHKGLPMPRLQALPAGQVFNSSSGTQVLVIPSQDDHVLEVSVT
UniProt Q9UNX4, sequence (Q9UNX4 whole entry): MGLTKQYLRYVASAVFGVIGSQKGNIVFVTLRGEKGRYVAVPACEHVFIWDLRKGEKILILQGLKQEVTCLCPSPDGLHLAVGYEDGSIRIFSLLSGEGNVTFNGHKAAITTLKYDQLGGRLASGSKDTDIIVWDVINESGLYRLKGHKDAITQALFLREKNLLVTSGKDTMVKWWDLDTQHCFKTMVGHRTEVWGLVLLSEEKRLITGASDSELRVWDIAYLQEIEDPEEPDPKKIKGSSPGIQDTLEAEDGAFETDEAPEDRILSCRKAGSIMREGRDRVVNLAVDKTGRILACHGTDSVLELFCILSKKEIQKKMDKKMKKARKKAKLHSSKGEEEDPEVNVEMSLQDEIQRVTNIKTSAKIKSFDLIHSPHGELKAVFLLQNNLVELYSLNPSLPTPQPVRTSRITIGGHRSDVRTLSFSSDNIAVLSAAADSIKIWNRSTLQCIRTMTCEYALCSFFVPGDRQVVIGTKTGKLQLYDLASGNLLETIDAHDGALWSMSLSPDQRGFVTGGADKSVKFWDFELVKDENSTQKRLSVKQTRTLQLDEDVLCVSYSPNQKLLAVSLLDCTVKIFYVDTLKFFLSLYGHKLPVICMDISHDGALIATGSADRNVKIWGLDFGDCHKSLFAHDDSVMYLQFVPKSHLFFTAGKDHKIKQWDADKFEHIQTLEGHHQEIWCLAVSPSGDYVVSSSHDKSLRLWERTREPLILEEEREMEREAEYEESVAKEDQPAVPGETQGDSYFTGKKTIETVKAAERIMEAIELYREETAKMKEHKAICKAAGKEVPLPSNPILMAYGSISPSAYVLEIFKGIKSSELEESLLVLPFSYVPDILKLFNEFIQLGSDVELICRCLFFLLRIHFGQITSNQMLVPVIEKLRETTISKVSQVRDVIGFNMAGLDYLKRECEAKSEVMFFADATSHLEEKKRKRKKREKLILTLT
UniProt Q9Y608, sequence (Q9Y608 whole entry): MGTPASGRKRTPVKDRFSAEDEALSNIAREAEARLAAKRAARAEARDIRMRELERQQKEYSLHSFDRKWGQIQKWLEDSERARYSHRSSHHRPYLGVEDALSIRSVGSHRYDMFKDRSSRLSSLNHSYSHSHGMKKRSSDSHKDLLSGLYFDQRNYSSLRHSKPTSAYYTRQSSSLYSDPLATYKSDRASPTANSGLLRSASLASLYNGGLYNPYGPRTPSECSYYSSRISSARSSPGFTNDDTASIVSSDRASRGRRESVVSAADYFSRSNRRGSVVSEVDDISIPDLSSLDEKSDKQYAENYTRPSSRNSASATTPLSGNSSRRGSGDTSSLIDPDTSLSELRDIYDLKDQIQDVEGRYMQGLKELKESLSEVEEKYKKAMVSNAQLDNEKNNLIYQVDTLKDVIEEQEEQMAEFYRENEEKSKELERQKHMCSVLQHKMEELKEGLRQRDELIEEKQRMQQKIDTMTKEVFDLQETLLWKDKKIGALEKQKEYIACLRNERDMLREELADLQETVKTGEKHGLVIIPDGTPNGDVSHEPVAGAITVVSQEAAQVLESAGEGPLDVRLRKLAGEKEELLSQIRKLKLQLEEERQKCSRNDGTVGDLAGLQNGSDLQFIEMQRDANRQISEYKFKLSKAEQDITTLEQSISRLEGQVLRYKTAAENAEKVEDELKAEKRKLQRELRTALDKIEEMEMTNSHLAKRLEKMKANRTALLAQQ
UniProt Q92506, sequence (Q92506 whole entry): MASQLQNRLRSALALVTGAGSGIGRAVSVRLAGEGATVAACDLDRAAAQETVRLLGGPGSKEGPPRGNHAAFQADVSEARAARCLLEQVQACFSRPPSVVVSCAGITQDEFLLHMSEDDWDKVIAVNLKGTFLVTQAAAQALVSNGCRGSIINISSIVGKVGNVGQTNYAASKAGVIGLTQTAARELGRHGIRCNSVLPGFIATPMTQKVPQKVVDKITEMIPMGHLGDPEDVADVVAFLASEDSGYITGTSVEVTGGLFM

Target	thermal stability z-score (lipoamide; [1])	thermal stability z-score (lipoamide; arsenate co-treatment: none)	thermal stability z-score (potassium arsenate)
NPR1 (UniProt P16066)	-0.594	-0.153	0.119
CHMP7 (UniProt Q8WUX9)	-0.517	-0.865	-0.0641
HSD17B8 (UniProt Q92506)	0.281	0.0946	-0.785
PDE6D (UniProt O43924)	0.899	0.515	0.912
TMA16 (UniProt Q96EY4)	-0.345	-0.0887	-0.0752
GNA11 (UniProt P29992)	0.729	0.404	-1.21
AK3 (UniProt Q9UIJ7)	-0.869	-1	-1.11
MYL6 (UniProt P60660)	0.576	0.451	-0.312
CHERP (UniProt Q8IWX8)	0.00336	0.0908	-0.107
AFAP1 (UniProt Q8N556)	0.411	-0.0977	-0.957
RAN (UniProt P62826)	0.345	-0.105	0.547
PPP2CB (UniProt P62714)	0.564	0.167	-0.474
HMG20B (UniProt Q9P0W2)	-0.211	-0.0202	0.0621
TTC28 (UniProt Q96AY4)	-0.0855	-0.0784	-0.0135
TOPBP1 (UniProt Q92547)	0.0371	0.0228	-0.623
STK11IP (UniProt Q8N1F8)	-0.747	-0.512	0.324
WDR3 (UniProt Q9UNX4)	-0.031	0.0101	-0.0987
COG7 (UniProt P83436)	-0.825	-0.928	0.224
BRD4 (UniProt O60885)	0.496	0.462	-0.724
ODR4 (UniProt Q5SWX8)	-0.0304	0.112	0.137
COQ6 (UniProt Q9Y2Z9)	1.2	-0.131	-2.7
PARVB (UniProt Q9HBI1)	-0.459	0.319	-0.107
TESC (UniProt Q96BS2)	0.565	0.315	0.846
TRAPPC10 (UniProt P48553)	0.191	0.411	0.381
UTP15 (UniProt Q8TED0)	0.625	0.147	0.528
FKBPL (UniProt Q9UIM3)	0.222	0.087	-0.0646
COPB1 (UniProt P53618)	0.189	0.0616	0.367
SUPT16H (UniProt Q9Y5B9)	1.01	1.11	0.819

Target	thermal stability z-score (lipoamide; [1])	thermal stability z-score (lipoamide; arsenate co-treatment: none)	thermal stability z-score (potassium arsenate)
MAGOH|MAGOHB	0.0953	0.171	0.0412
LRRFIP2 (UniProt Q9Y608)	1.31	1.11	1.07
C2CD5 (UniProt Q86YS7)	0.332	0.297	-0.133
ZWILCH (UniProt Q9H900)	-0.3	-0.512	-0.55
HEATR3 (UniProt Q7Z4Q2)	-0.189	0.0325	0.285
RPL13 (UniProt P26373)	-0.064	0.00879	-1.05
RNF4 (UniProt P78317)	-1.23	-0.848	-0.192
DDX21 (UniProt Q9NR30)	0.693	0.249	-1.35
CARS2 (UniProt Q9HA77)	-0.273	-0.517	-1.39
CAPN2 (UniProt P17655)	0.345	0.208	0.109
SH3BP5L (UniProt Q7L8J4)	0.286	0.0604	0.227
MED24 (UniProt O75448)	0.0619	-0.0126	-0.0686
ZNF622 (UniProt Q969S3)	-0.153	-0.393	1.39
VCL (UniProt P18206)	-0.353	-0.286	-2.02
PTMA (UniProt P06454)	1.3	1.23	0.425
ARPC5 (UniProt O15511)	0.9	0.484	-0.246
MRPS9 (UniProt P82933)	0.316	0.203	0.195
CBX3 (UniProt Q13185)	0.366	0.43	1.76
TSSC4 (UniProt Q9Y5U2)	1.17	0.668	-0.46
NUBP1 (UniProt P53384)	-0.23	0.385	-0.302
OTUD6B (UniProt Q8N6M0)	0.504	-0.85	0.0655
GALK1 (UniProt P51570)	-0.559	-0.412	-0.534
BOLA3 (UniProt Q53S33)	-0.103	-0.245	0.0193
EIF4B (UniProt P23588)	0.102	0.429	0.032
GTF2H3 (UniProt Q13889)	0.0675	-0.229	-0.106
HSP90AB4P (UniProt Q58FF6)	0.361	-0.21	-0.635
HNRNPC (UniProt P07910)	2.24	1.04	0.94
